Experimental data as given in the CheMixHub viscosity set.

Assay: xn = mol fraction of the nth substance listed

CC(=O)[O-].C[N+]1(CC2CO2)CCCC1=O (stereo not given) + O
viscosity [mPa·s], 101 kPa
Conditions	293.15 K	298.15 K	303.15 K	308.15 K	313.15 K
x1 = 0.0346	2.26	1.94	1.67	1.46	1.29
x1 = 0.0775	4.27	3.56	3.01	2.6	2.28
x1 = 0.1028	5.4	4.45	3.71	3.13	2.67
x1 = 0.2008	7.75	6.28	5.18	4.33	3.63
x1 = 0.3054	8.32	6.76	5.57	4.67	3.95
x1 = 0.4045	8.17	6.7	5.56	4.69	4
x1 = 0.5113	7.82	6.47	5.41	4.6	3.94
x1 = 0.6049	7.47	6.23	5.23	4.47	3.85
x1 = 0.7052	7.16	6.01	5.1	4.38	3.79
x1 = 0.8048	6.92	5.83	4.97	4.28	3.72
x1 = 0.9047	6.73	5.68	4.87	4.21	3.67

CCCCOCCOCCOCCCC + CCCN
298.15 K, 101 kPa
Conditions	viscosity [mPa·s]
x1 = 0.0095	0.375
x1 = 0.0288	0.417
x1 = 0.0455	0.45
x1 = 0.0845	0.529
x1 = 0.1266	0.622
x1 = 0.1754	0.719
x1 = 0.2172	0.806
x1 = 0.2531	0.87
x1 = 0.266	0.904
x1 = 0.3172	0.994
x1 = 0.3559	1.055
x1 = 0.3977	1.129
x1 = 0.4621	1.24
x1 = 0.516	1.33
x1 = 0.5979	1.489
x1 = 0.6482	1.579
x1 = 0.6986	1.689
x1 = 0.7471	1.774
x1 = 0.7956	1.869
x1 = 0.8618	2.01
x1 = 0.9261	2.093
x1 = 0.9641	2.143

CCCC[N+](CCCC)(CCCC)CCCC.[Br-] + OCC(O)CO
viscosity [mPa·s], x1 = 0.2
Conditions	296.97 K	298 K	302.02 K	307.2 K	312.13 K	317.31 K	322.23 K
101 kPa	892.4	–	671.4	484.4	331.4	238	195.5
101.33 kPa	–	333.9	–	–	–	–	–

CCCC[N+](CCCC)(CCCC)CCCC.[Br-] + OCCOCCOCCO
100 kPa, x1 = 0.2
Conditions	viscosity [mPa·s]
303.15 K	279.6
313.15 K	176.9
323.15 K	101.6

CCCCOCCOCCOCCCC + CCOC(=O)OCC
viscosity [mPa·s], 101.3 kPa
Conditions	298.15 K	308.15 K	318.15 K
x1 = 0.0131	0.771	0.675	0.587
x1 = 0.0338	0.806	0.699	0.603
x1 = 0.0756	0.864	0.751	0.638
x1 = 0.1533	0.976	0.842	0.707
x1 = 0.2472	1.118	0.949	0.792
x1 = 0.3392	1.245	1.056	0.871
x1 = 0.4137	1.359	1.14	0.94
x1 = 0.425	1.379	1.153	0.95
x1 = 0.4831	1.457	1.22	1.002
x1 = 0.6085	1.63	1.357	1.105
x1 = 0.7927	1.892	1.556	1.255
x1 = 0.8959	2.018	1.656	1.328
x1 = 0.954	2.116	1.734	1.383

Oc1cccc(O)c1O + CC[N+](CC)(CC)CC.[Br-]
101.3 kPa, x2 = 0.333
Conditions	viscosity [mPa·s]
293.15 K	46000
298.15 K	32000
303.15 K	23000
308.15 K	16000
313.15 K	10500
318.15 K	7500
323.15 K	5500

CCCC[N+](CCCC)(CCCC)CCCC.[Br-] + CC(O)CO
101 kPa, x1 = 0.2
Conditions	viscosity [mPa·s]
298.15 K	96.3
303.15 K	71.6
308.15 K	54.5
313.15 K	42.1
318.15 K	33.2
323.15 K	26.6

NCCNCCN + CCCCCCO
viscosity [mPa·s], 101 kPa
Conditions	298.15 K	303.15 K	308.15 K
x1 = 0.0573	5.116	4.247	3.626
x1 = 0.1064	5.533	4.59	3.929
x1 = 0.1567	5.928	4.857	4.134
x1 = 0.2089	6.207	5.066	4.274
x1 = 0.2683	6.373	5.168	4.367
x1 = 0.2986	6.429	5.206	4.393
x1 = 0.4054	6.424	5.195	4.362
x1 = 0.5082	6.261	5.038	4.22
x1 = 0.6024	5.991	4.851	4.058
x1 = 0.7078	5.825	4.666	3.925
x1 = 0.7906	5.648	4.568	3.857
x1 = 0.8419	5.594	4.524	3.828
x1 = 0.9102	5.589	4.493	3.81
x1 = 0.9579	5.579	4.478	3.801

Cc1cccc(N)c1 + Cc1ccccc1
303.15 K, 101.33 kPa
Conditions	viscosity [mPa·s]
x1 = 0.168	0.61
x1 = 0.422	0.8
x1 = 0.619	1.05
x1 = 0.801	1.53
